Measurements as given in patent US12155103B2, “Electrochemical storage devices comprising chelated metals” (The Regents of the University of Colorado, a body corporate, priority 2019, dated 2024).
Where two headings read alike, the source gives them in different places.

Experiments:
[1] = Cyclic voltammetry and kinetic analysis on glassy carbon electrode; assay type: physicochemical; conditions: for E^0 / Heterogenous Reduction Rate Constant (k^0) / Diffusion Coefficient (Do): glassy carbon electrode
Method: Cyclic voltammetry was conducted using a Gamry Interface 1000 potentiostat, an Ag/AgCl aqueous reference electrode (3 M NaCl filling solution), a Pt wire counter electrode, and a 3-mm-diameter glassy carbon electrode. Half-cell experiments were conducted on a solution containing 5 mM K[Cr(PDTA)], 5 mM K4Fe(CN)6, and 0.125 M K2B4O7 at pH 9.
For an irreversible reaction, the peak current, ip, is given by equation (1).
[formula] where ip is in amperes, A is the electrode area (cm^2), CO° is the bulk concentration of oxidant (moles cm^−3), v is the potential sweep rate (V s^−1), DO is the diffusion coefficient of the oxidant, α is the charge transfer coefficient, and na is the number of […] involved in the rate-determining step. This equation reduces, at 25° C. to equation (2). ip=2.99*10^5n(αna)^1/2ACO^0DO^1/2v^1/2 (2) ip vs. v^1/2 was plotted, giving a straight line, with the slope being proportional to DO. Assuming an αna value of ½ allowed for the solving of DO. For a totally irreversible peak, the peak potential, Ep, is a function of scan rate, the difference between Ep and the formal potential, E^0′, being related to the standard heterogeneous rate constant, k°. The peak current can be expressed as show in equation (3).
[formula] Ln(ip) vs. (Ep−E°′), at different scan rates was plotting, with the intercept being proportional to and allowing solving for k°. E°′ was found in literature to be −1.31 V vs Ag/AgCl. The bulk concentration was 0.005 M, and na was 1 as there is only 1 electron being transferred. The area of the electrode is 0.0707 cm^2 from a 3 mm diameter glassy carbon electrode. Scan rates were done at 25, 50, 100, 200, and 500 mV s^−1. The slope of ip vs. v^1/2 was 0.0747, and the intercept of ln(ip) vs. (Ep−E°′) was −13.527.
Half-cell measurements were made using cyclic voltammetry (CV), which was conducted using a Gamry Interface 1000 potentiostat, an Ag/AgCl aqueous reference electrode (3 M NaCl filling solution), a Pt wire counter electrode, and a 3-mm-diameter glassy carbon working electrode, unless otherwise noted. Solutions were first sparged with an inert gas, for example N2, helium, neon, or argon, or combinations thereof, for at least 15 minutes and then kept under a blanket of an inert gas, such as N2, helium, neon, or argon, or combinations thereof, while tests were performed. All testing was performed at ambient temperatures. For carbon paper cyclic voltammetry experiments, the same setup was used as with the glassy carbon electrode, but the working electrode was a piece of carbon paper. For all chromium complexes and Fe(CN)6 solution 5 mM solutions were utilized for all CV experiments except those utilizing carbon paper electrodes which utilized 50 mM solutions. Other metal chelate complexes have concentrations that are specified in the figure captions.
Cyclic voltammetry (CV) was performed to compare the electrochemical behavior of FeDTPA and CrPDTA with their respective unchelated metal ions. […] Compared to their non-chelated counterparts, a greater electrochemical reversibility is observed in the chelated over the non-chelated metals (FIG. 32).

[2] = cited from earlier work
[3] = Stability of iron-chelate complexes at pH 9
[4] = cited from earlier work; for reduction potential E^0: literature or previously reported values
[5] = cited from earlier work; remark: listed apart in the source
[6] = Maximum solubility at room temperature (saturated or concentrated solution, UV-Vis at 506 nm; bulk electrolysis for K2FeDTPA); assay type: physicochemical
Method: A saturated solution of KCrPDTA was prepared by dissolving KCrPDTA crystals in minimal DI water at room temperature such that crystals remain undissolved. The solution was agitated for 1 day. […] For the Na^+ cation with CrEDTA, the solubility was determined from a concentrated impure solution containing 3:1 NaCl. […] For the K2 with Fe-DTPA, the solubility was determined from a concentrated impure solution containing 3:1 KCl.

Compound	E^0 [1]	Heterogenous Reduction Rate Constant (k^0) [1]	Binding Constant (Fe^+2) [2]	Binding Constant (Fe^+3) [2]	Stability at pH 9 [3]	further results
[Cl][Cr]([Cl])[Cl] [CrCl3]	−0.64 V vs Ag/AgCl	10 ×10⁻⁶ cm/s				
O=C(O)CN(CCN(CC(=O)O)CC(=O)O)CCN(CC(=O)O)CC(=O)O [DTPA, diethylenetriaminepentaacetic acid]			16.55	28.60		
O=C([O-])CN(CCO)CCN(CC(=O)[O-])CC(=O)[O-].[Fe+3] [FeHEDTA]			12.2	19.7	Dimerizes	
[Cl][Fe]([Cl])[Cl] [FeCl3]	0.55 V vs Ag/AgCl	3.4 ×10⁻⁶ cm/s				reduction potential E^0 [4]: 0.55 V vs. Ag/AgCl; Diffusion Coefficient (Do) [1]: 7.55 10^−6 cm^2 s^−1; heterogeneous reduction rate constant k^0 ([1]; glassy carbon, 3 M HCl): 3.4e-06 cm/s
Mn EDTA						RFB Electrolyte solubility ([5]; pH 3): 0.4 M; RFB Electrolyte solubility ([5]; pH 4.5): 0.4 M; RFB Electrolyte solubility ([5]; pH 6): 0.4 M; RFB Electrolyte solubility ([5]; pH 6.6): 0.4 M; RFB Electrolyte solubility ([5]; pH 8.0): 0.4 M
O=C([O-])CN(CCN(CC(=O)[O-])CC(=O)[O-])CC(=O)[O-].[Fe+3].[Na+] [FeEDTA]			14.33	25.10	Dimerizes	
[Fe+2].c1ccc(-c2ccccn2)nc1.c1ccc(-c2ccccn2)nc1.c1ccc(-c2ccccn2)nc1 [Fe(bpy)3]			4.2	16.29	Insoluble	reduction potential E^0 [4]: +0.903 V vs. Ag/AgCl
O=C(O)CN(CCN(CC(=O)O)CC(=O)O)CC(=O)O.[Cr] [CrEDTA]						Cr^3+/2+ reduction potential ([4]; near neutral pH): −0.99 V vs. SHE
O=C([O-])CN(CCN(CC(=O)[O-])CC(=O)[O-])CCN(CC(=O)[O-])CC(=O)[O-].[Fe+3].[K+].[K+] [FeDTPA K2]	−0.15 V vs Ag/AgCl	15.5 ×10⁻⁶ cm/s				maximum solubility / highest concentration cycled ([6]; pH 9, 20° C., limited by viscosity): 1.35 M; Max Solubility at RT ([6]; room temperature): 1.35 M; Diffusion Coefficient (Do) [1]: 2.41 10^−6 cm^2 s^−1
